Assay results published in article PMC12376758, “Restoration of CB1 receptor function in hippocampal GABAergic neurons rescues memory deficits in Huntington’s disease models” (Translational Neurodegeneration, 2025).
Like-named read-outs stand apart in the source and are kept apart here.

Assays:
WT mice [1] = experiment: Novel object location task (NOLT) in WT mice (WIN dose selection); type: in vivo, mouse; details: 13-week-old WT mice, WIN 1 and 4 mg/kg i.p., 10 days
Experimental: (§1) NOLT was conducted in a quadrangular open field (40 cm × 40 cm, 40 cm high) with a light intensity of 40 lx at controlled room conditions (19–22 °C, 40%–60% humidity). Mice were first habituated to the arena, which was devoid of objects but included spatial cues attached to the walls, for 15 min per session over two consecutive days. During this phase, spontaneous locomotor activity, as well as the time and the distance spent in the periphery versus the center, were measured. On the third day (NOLT training), two identical objects (A and A′) were placed in adjacent corners of the arena, and mice were allowed to explore for 10 min. Twenty-four hours later (NOLT testing), the object A was placed in the same location, while a new object (A″) was placed in the diagonally opposite corner. During the testing phase, mice were allowed to explore for 5 min. The arena was thoroughly cleaned between trials to eliminate residual odors. Animal movements were tracked and recorded using the SMART® Junior software (Panlab, Spain). Exploration times were recorded to calculate the discrimination index as follows: discriminationindex=Timeexploringnovelobject-Timeexploringfamiliarobject/Timeexploringbothobjects×100\%
(§2) Given the observed reduction of CB1R in the R6/1 hippocampus, we hypothesized that pharmacological activation of the remaining CB1Rs could mitigate HD-related memory decline.

young rats = details: chronic WIN; cited from earlier work
[2] = tested on: Hdh^Q7/Q111 mutant KI mice; experiment: NOLT, NORT and Y-maze in Hdh^Q7/Q111 KI mice; type: in vivo, mouse; details: 6 months, sub-chronic WIN 1 mg/kg i.p.
Experimental: (§3) Spontaneous working memory was assessed using the Y-maze test. Mice were habituated to the testing room 1 h prior to the session. During the 8-min trial, each mouse was placed in the center of the maze and allowed to move freely. An arm entry was recorded when all four paws of the mouse were within the arm. The apparatus was cleaned thoroughly after each trial. Alternation was defined as successive entries into all three arms in an overlapping triplet sequence. Spontaneous alternation was calculated as the ratio of actual alternations to the total possible alternations, and the result was expressed as a percentage.
NOLT was conducted in a quadrangular open field (40 cm × 40 cm, 40 cm high) with a light intensity of 40 lx at controlled room conditions (19–22 °C, 40%–60% humidity). […] During this phase, spontaneous locomotor activity, as well as the time and the distance spent in the periphery versus the center, were measured. […] Animal movements were tracked and recorded using the SMART® Junior software (Panlab, Spain). Exploration times were recorded to calculate the discrimination index as follows: discriminationindex=Timeexploringnovelobject-Timeexploringfamiliarobject/Timeexploringbothobjects×100\%
Exploration in the NORT followed the same conditions as described for the NOLT. […] Animal movements were tracked and recorded with the SMART® Junior software (Panlab, Spain). […]

WT mice [3] = experiment: Y-maze in WT mice (WIN dose selection); type: in vivo, mouse; details: 13-week-old WT mice, WIN 1 and 4 mg/kg i.p., 10 days
Experimental: as §3, §2

PSD95 = experiment: Western blot of PSD95 in hippocampal lysates; type: in vivo, mouse; details: R6/1 mice, WIN 1 mg/kg i.p. 10 days
WT mice [4] = experiment: Open field test in WT mice (WIN dose selection); type: in vivo, mouse; details: 13-week-old WT mice, WIN 1 and 4 mg/kg i.p., 10 days
Experimental: as §1, with “Twenty-four hours later (NOLT testing), the object A was placed in the same location, while a new object (A″) was placed in the diagonally opposite corner. During the testing phase, mice were allowed to explore for 5 min. The arena was thoroughly cleaned between trials to eliminate residual odors.” left out
Exploration in the NORT followed the same conditions as described for the NOLT. […] During this phase, spontaneous locomotor activity and time/distance spent in the periphery versus the center of the arena were measured. […] Animal movements were tracked and recorded with the SMART® Junior software (Panlab, Spain). Exploration times were recorded and used to calculate the discrimination index as indicated above. […]

adult rats = tested on: adult rats; set-up: method as in PMID 12888772; details: chronic treatment; cited from earlier work
WT mice [5] = experiment: Novel object recognition task (NORT) in WT mice (WIN dose selection); type: in vivo, mouse; details: 13-week-old WT mice, WIN 1 and 4 mg/kg i.p., 10 days
Experimental: Exploration in the NORT followed the same conditions as described for the NOLT. Mice were first habituated to the arena, without objects, for 15 min on two consecutive days. During this phase, spontaneous locomotor activity and time/distance spent in the periphery versus the center of the arena were measured. On the third day (NORT training), mice were allowed to explore two identical objects (B and B′) for 10 min before being returned to their home cage. Twenty-four hours later (NORT testing), one of the familiar objects (B) and a new object (C) were placed in the same location as during the training session, and the mice were allowed to explore for 5 min. The arena was thoroughly cleaned between trials to prevent odor contamination. Animal movements were tracked and recorded with the SMART® Junior software (Panlab, Spain). Exploration times were recorded and used to calculate the discrimination index as indicated above.
as §2

CB1R [6] = type: in vivo, mouse; details: for CB1R protein level, Western blot: total hippocampal lysates, WIN 1 mg/kg i.p. 10 days
CB2R = experiment: Western blot of CB2R in total hippocampal lysates after sub-chronic WIN; type: in vivo, mouse; details: WIN 1 mg/kg i.p. 10 days
[7] = tested on: rat model of cholinergic degeneration; set-up: method as in PMID 39489624; details: low-dose WIN; cited from earlier work
R6/1 mice = experiment: Y-maze spontaneous alternation in R6/1 mice; type: in vivo, mouse; details: WIN 1 mg/kg i.p. 10 days
Experimental: To selectively induce CB1R expression in GABAergic neurons, we generated a plasmid for AAV8-mDlx5/6-CNR1. Infectious AAV viral particles were developed by the Viral Vector Production Unit (UPV) of the Universitat Autònoma de Barcelona (UAB). WT and R6/1 mice, aged 10 weeks, were anesthetized with ketamine hydrochloride/xylazine hydrochloride (i.p.; 100 and 10 mg/kg, respectively, Merck) and injected bilaterally in the hippocampus with AAV8-mDlx-CB1R or AAV8-mCherry (Vector Biolabs) (viral concentrations ranging from 1.8 × 10^9 to 1.5 × 10^9). The injection coordinates (in mm) from bregma (anteroposterior and lateral) and from skull (dorsoventral) were as follows: anteroposterior: − 2.0; lateral ± 1.25, and dorsoventral: − 1.3 (CA1). AAVs were injected for over 2 min, and the cannula was left in place for an additional 5 min to allow complete diffusion of the virus before being slowly retracted. Mice were monitored for 1 h post-injection and then returned to the housing facility for 3 weeks. […] For double-positive quantification, Pearson’s correlation coefficient was calculated using ImageJ2. […]
Spontaneous working memory was assessed using the Y-maze test. […] An arm entry was recorded when all four paws of the mouse were within the arm. […] Spontaneous alternation was calculated as the ratio of actual alternations to the total possible alternations, and the result was expressed as a percentage.

CB1R [8] = type: in vivo, mouse; details: hippocampus
Experimental: WT and R6/1 mice were deeply anesthetized with ketamine and xylazine (i.p injection; 100 mg/kg and 10 mg/kg, respectively) and immediately perfused transcardially with saline, followed by 4% paraformaldehyde in phosphate buffer. Brains were then removed, post-fixed overnight in the same solution, cryoprotected by immersion in 30% sucrose, and frozen in dry ice-cooled methylbutane. Serial coronal cryostat sections (30 μm) were collected through the entire brain in PBS as free-floating sections and processed as described previously [47].
Sections were rinsed three times in PBS, permeabilized, and blocked in PBS containing 0.3% Triton X-100 and 3% normal goat serum (Pierce Biotechnology, Rockford, IL) for 15 min at room temperature. […]
Stained coronal sections were examined using a Carl Zeiss LSM880 confocal microscope, a 10 × , 40 × and 63 × oil-immersion objective, 4 × digital zoom, and a standard Airy disc pinhole. For each mouse, at least three 30-µm thick coronal sections containing the hippocampal region were analyzed. […] The CB1R-, calbindin- and GAD67-integrated density was quantified with NIH ImageJ2 version 2.9.0/1.53t (Wayne Rasband, NIH). For double-positive quantification, Pearson’s correlation coefficient was calculated using ImageJ2. […]

CA1 pyramidal neurons [9] = experiment: Ex vivo patch-clamp: depolarization-induced suppression of inhibition (DSI); type: in vivo, mouse; details: hippocampal slices of WIN-treated R6/1 mice, n = 17 neurons
[10] = tested on: mutant huntingtin (mHtt) aggregates; experiment: EM48 immunostaining of mutant huntingtin nuclear aggregates in hippocampus; type: in vivo, mouse; details: R6/1 mice, hippocampus (CA1), WIN 1 mg/kg i.p. vs vehicle
Experimental: Hippocampal coronal sections from vehicle- and WIN-treated R6/1 mice were first incubated for 30 min in ammonium chloride (NH4Cl) to quench endogenous fluorescence. They were then blocked for 1 h in PBS containing 0.3% Triton X-100 (Merck), 3% normal goat serum (Abcam), and 1% bovine serum albumin (BSA; Merck). After blocking, the sections were incubated overnight at 4 °C with anti-EM48 (1:1000, Merck). The EM48 antibody specifically recognizes huntingtin-containing nuclear aggregates by targeting the first 256 amino acids of human huntingtin protein [48]. […]
Imaging was performed using a Leica Confocal SP5 with a 63 × oil-immersion objective, ensuring consistent imaging conditions (pinhole size:1 AU, resolution: 1024 × 1024 pixels, and intensity). Automated quantification of nuclear huntingtin aggregates, including the number, intensity, and pixel area of EM48-stained nuclei in the hippocampus, was carried out using the ImageJ particle analysis plugin.
The density of aggregates was calculated as the ratio of the number of positive particles (NII) to the pixel area (mm^2). EM48 staining index (SI) was determined as the product of the mean number of stained nuclei and the average nuclear stain intensity, as described previously.

CA1 pyramidal neurons [11] = experiment: Golgi-Cox dendritic spine density analysis; type: in vivo, mouse; details: R6/1 mice, WIN 1 mg/kg i.p. sub-chronic
Experimental: Golgi-Cox impregnation was performed using the Rapid Golgistain Kit (FD Neurotechnologies, Columbia, MD) following the manufacturer's instructions. Mice were euthanized by cervical dislocation, and brains were rapidly removed. The two hemispheres were separated and incubated in a solution of A/B for 2 weeks. After this period, the brains were transferred to solution C for an additional 7 days. The brains were then processed using a cryostat to obtain 100-μm sections, which were mounted on gelatin-coated slides and left to dry for 24 h.
The sections were stained with the solutions provided in the kit and subsequently dehydrated before being mounted with DPX. Bright field images were acquired using a Leica AF6000 epifluorescence microscope with a × 63 numerical aperture objective for dendritic spine analysis. Segments of apical dendrites from hippocampal CA1 pyramidal neurons were selected for analysis. Dendritic spine density was manually quantified using the ImageJ Plug-in Cell Counter. Spines were marked in the appropriate focal plane preventing double counting, and only fully impregnated pyramidal neurons with their soma entirely within the thickness of the section were included. Dendritic segments ranging from 20 to 60 μm in length were analyzed. At least 60 dendrites per group from at least three mice per genotype were counted.

CB1R [12] = tested on: CB1R; set-up: method as in PMID 36979335; details: rat model of cerebral ischemia; cited from earlier work
BDNF = experiment: Western blot of BDNF in hippocampal lysates; type: in vivo, mouse; details: R6/1 mice, WIN 1 mg/kg i.p. 10 days
[13] = tested on: models of vascular dementia and ischemic injury; set-up: method as in PMID 36979335, PMID 29945070; details: cited from earlier work
CB1R [14] = molecular target: T1, CB1R (Mus musculus, UniProt P47746); experiment: biochemical; type: binding; details: for Fraction high: CP55940 inhibition curve; for IC50: CP55940 vs [3H]SR141716A 2 nmol/L
T1 construct: from tissue
T1 sequence (P47746 whole entry): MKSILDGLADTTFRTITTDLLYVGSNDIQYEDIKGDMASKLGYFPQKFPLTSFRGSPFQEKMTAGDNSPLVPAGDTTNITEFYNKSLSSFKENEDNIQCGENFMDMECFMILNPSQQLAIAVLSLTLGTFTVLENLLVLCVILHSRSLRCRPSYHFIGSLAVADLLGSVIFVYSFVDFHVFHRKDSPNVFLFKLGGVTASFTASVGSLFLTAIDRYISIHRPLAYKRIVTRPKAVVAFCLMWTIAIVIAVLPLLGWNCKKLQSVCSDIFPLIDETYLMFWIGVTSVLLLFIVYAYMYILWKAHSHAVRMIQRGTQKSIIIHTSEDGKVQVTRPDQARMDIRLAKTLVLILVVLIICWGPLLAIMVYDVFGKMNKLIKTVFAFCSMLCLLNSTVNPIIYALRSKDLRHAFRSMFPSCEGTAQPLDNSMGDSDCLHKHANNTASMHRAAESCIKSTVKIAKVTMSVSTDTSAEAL

mHtt = tested on: mHtt; set-up: method as in PMID 20929960; details: pharmacological activation of CB1R, HD mouse models; cited from earlier work
aged mice = tested on: aged mice; set-up: method as in PMID 16221768, PMID 36697430; details: chronic low-dose; cited from earlier work

## Cc1c(C(=O)c2cccc3ccccc23)c2cccc3c2n1[C@H](CN1CCOCC1)CO3 [WIN, WIN 55212–2]
WT mice [1]
  spatial memory (NOLT): no differences
Young rats
  cytoskeletal remodeling in the hippocampus: increased dendritic thickness and branching
[2]
  memory deficits (NOLT, NORT, Y-maze): restored
WT mice [3]
  working memory (Y-maze): no differences
PSD95
  PSD95 protein level: restored
WT mice [4]
  time spent in the periphery and the center of the open field arena: No adverse effects
  total distance traveled during the open field test: No adverse effects
Adult rats
  performance in novel object recognition test: did not affect
  performance in open field test: did not affect
WT mice [5]
  recognition memory (NORT): no differences
CB1R [6]; Hdh^Q7/Q111 KI mice 6 months, hippocampal lysates, sub-chronic WIN
  CB1R levels, Western blot: trend of increase
CB1R [6]; R6/1 mice 13 weeks
  CB1R protein level, Western blot: restored
CB1R [6]; WT mice
  CB1R protein level, Western blot: significantly modulated
CB2R; Hdh^Q7/Q111 KI mice 6 months
  CB2R levels, Western blot: did not significantly affect
CB2R; R6/1 mice 13 weeks
  CB2R levels, Western blot: did not significantly affect
[7]
  CB1R activity in the cortex: increase
  cognitive performance: improved
R6/1 mice; presymptomatic stage (11 weeks, Fig. S4d)
  spontaneous alternation performance (Y-maze): significantly enhanced
R6/1 mice; symptomatic stage (13 weeks, Fig. 3d)
  spontaneous alternation performance (Y-maze): significantly enhanced
CB1R [8]; Hdh^Q7/Q111 KI mice, sub-chronic WIN
  CB1R staining, immunohistochemistry: restored to near WT levels
CB1R [8]; R6/1 mice, WIN 1 mg/kg i.p. 10 days
  CB1R levels, immunohistochemistry: comparable to those of WT controls
CA1 pyramidal neurons [9]
  DSI: suppression of IPSC amplitude after 5-s depolarizing step (-70 to 0 mV): 52.70% ± 5.65
[10]
  density of intranuclear mHtt inclusion: significant reduction
CA1 pyramidal neurons [11]
  apical dendritic spine density reduction in CA1 pyramidal neurons: reversed
CB1R [12]
  CB1R protein levels in the hippocampus: significantly increased
BDNF
  BDNF protein level: restored
[13]
  neuroprotection: neuroprotective effects

## CCCCCCC(C)(C)c1ccc([C@@H]2C[C@H](O)CC[C@H]2CCCO)c(O)c1 [CP55940]
CB1R [14]; hippocampal membranes of R6/1 WIN (1 mg/kg) mice
  Fraction high: 0.6378^$$$
CB1R [14]; hippocampal membranes of WT WIN (1 mg/kg) mice
  Fraction high: 0.4654
CB1R [14]; hippocampal membranes of WT veh mice
  Fraction high: 0.4696
CB1R [14]; IC50 (single binding site), hippocampal membranes of R6/1 veh mice
  IC50: 64.4 ± 12.1 nM
CB1R [14]; IC50, first value (high-affinity site), hippocampal membranes of R6/1 WIN (1 mg/kg) mice
  IC50: 10.9 ± 16 nM
CB1R [14]; IC50, first value (high-affinity site), hippocampal membranes of WT WIN (1 mg/kg) mice
  IC50: 18 ± 16.7 nM
CB1R [14]; IC50, first value (high-affinity site), hippocampal membranes of WT veh mice
  IC50: 23.2 ± 18.8 nM
CB1R [14]; read-out: IC50, second value (low-affinity site), hippocampal membranes of R6/1 WIN (1 mg/kg) mice
  IC50: 382 nM
CB1R [14]; read-out: IC50, second value (low-affinity site), hippocampal membranes of WT WIN (1 mg/kg) mice
  IC50: 850 nM
CB1R [14]; read-out: IC50, second value (low-affinity site), hippocampal membranes of WT veh mice
  IC50: 1140 nM

## CCCCCc1cc(O)c2c(c1)OC(C)(C)[C@@H]1CCC(C)=C[C@@H]21 [THC, Δ9-tetrahydrocannabinol]
mHtt
  mHtt accumulation: alleviates
Aged mice
  cognitive function: improves
  cortical spine density: increasing
  synaptic protein expression: increasing
